#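 48-hour exposure; five concentrations; linearly interpolated endpoints. The concentration for 50% growth inhibition is given as GI50.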 Calls of active or inactive are those of the source. Rule as the data show it: active = GI50 up to about 1.1 µM and inactive = higher.
# Key:
# Test in all cases: NCI tumour cell line growth inhibition, 48 h
# DU-145 = system: DU-145
# OVCAR-4 = system: OVCAR-4
# SW-620 = system: SW-620
# OVCAR-8 = system: OVCAR-8
# SF-295 = system: SF-295
# EKVX = system: EKVX
# MDA-MB-231 = system: MDA-MB-231
# SN12C = system: SN12C
# MDA-N = system: MDA-N
# HOP-62 = system: HOP-62
# TK-10 = system: TK-10
# RPMI-8226 = system: RPMI-8226
# M14 = system: M14
# HT-29 = system: HT-29
# SF-539 = system: SF-539
# OVCAR-3 = system: OVCAR-3
# SNB-19 = system: SNB-19
# NCI-H460 = system: NCI-H460
# NCI-H226 = system: NCI-H226
# UO-31 = system: UO-31
SMILES,GI50 (DU-145),GI50 (OVCAR-4),GI50 (SW-620),GI50 (OVCAR-8),GI50 (SF-295),GI50 (EKVX),GI50 (MDA-MB-231),GI50 (SN12C),GI50 (MDA-N),GI50 (HOP-62),GI50 (TK-10),GI50 (RPMI-8226),GI50 (M14),GI50 (HT-29),GI50 (SF-539),GI50 (OVCAR-3),GI50 (SNB-19),GI50 (NCI-H460),GI50 (NCI-H226),GI50 (UO-31)
CCOC(=O)CSc1[nH]c2nc(C)nc(Cl)c2c1C#N,> 10 µM (inactive),> 10 µM (inactive),> 10 µM (inactive),> 10 µM (inactive),> 10 µM (inactive),> 10 µM (inactive),> 10 µM (inactive),> 10 µM (inactive),> 10 µM (inactive),> 10 µM (inactive),> 10 µM (inactive),> 10 µM (inactive),> 10 µM (inactive),> 10 µM (inactive),,,,,,
O=[N+]([O-])c1ccc(Cl)c2c([N+](=O)[O-])cccc12,,6.22 µM (inactive),2.91 µM (inactive),3.5 µM (inactive),> 10 µM (inactive),> 10 µM (inactive),,4.56 µM (inactive),2.18 µM (inactive),> 10 µM (inactive),9.57 µM (inactive),5.52 µM (inactive),,3.26 µM (inactive),3.06 µM (inactive),3.49 µM (inactive),8.51 µM (inactive),,,
CN(C)C1(N(C)C)Oc2c(c(=O)n(C)c(=O)n2C)C(c2ccc(C(F)(F)F)cc2)C1(F)F (stereo not drawn),> 100 µM (inactive),> 100 µM (inactive),> 100 µM (inactive),,> 100 µM (inactive),> 100 µM (inactive),> 100 µM (inactive),,,> 100 µM (inactive),> 100 µM (inactive),> 100 µM (inactive),> 100 µM (inactive),,,> 100 µM (inactive),> 100 µM (inactive),> 100 µM (inactive),> 100 µM (inactive),> 100 µM (inactive)
CC1(C)S[C@@H]2[C@H](N3C(=O)c4ccccc4C3=O)CN2[C@H]1NC(=O)N[C@@H]1N2C[C@@H](N3C(=O)c4ccccc4C3=O)[C@H]2SC1(C)C,> 100 µM (inactive),> 100 µM (inactive),> 100 µM (inactive),58.3 µM (inactive),75.7 µM (inactive),,52.7 µM (inactive),> 100 µM (inactive),,48.8 µM (inactive),77.1 µM (inactive),> 100 µM (inactive),> 100 µM (inactive),> 100 µM (inactive),55.1 µM (inactive),> 100 µM (inactive),43.2 µM (inactive),> 100 µM (inactive),> 100 µM (inactive),> 100 µM (inactive)
O=C(O)Cc1ccc(Oc2nc3ccccc3nc2C(=O)O)cc1,> 100 µM (inactive),> 100 µM (inactive),> 100 µM (inactive),> 100 µM (inactive),> 100 µM (inactive),> 100 µM (inactive),> 100 µM (inactive),> 100 µM (inactive),,> 100 µM (inactive),> 100 µM (inactive),> 100 µM (inactive),> 100 µM (inactive),> 100 µM (inactive),> 100 µM (inactive),> 100 µM (inactive),> 100 µM (inactive),> 100 µM (inactive),> 100 µM (inactive),> 100 µM (inactive)
C=CCNC(=O)N(CCCCC(NC(C)=O)C(=O)NCc1ccccc1)Cc1ccccc1 (stereo not drawn),,> 100 µM (inactive),> 100 µM (inactive),> 100 µM (inactive),> 100 µM (inactive),> 100 µM (inactive),,> 100 µM (inactive),,> 100 µM (inactive),> 100 µM (inactive),> 100 µM (inactive),> 100 µM (inactive),> 100 µM (inactive),> 100 µM (inactive),> 100 µM (inactive),> 100 µM (inactive),> 100 µM (inactive),> 100 µM (inactive),> 100 µM (inactive)
CSc1nc(-c2ccccc2)[nH]c(=O)n1,> 100 µM (inactive),> 100 µM (inactive),> 100 µM (inactive),> 100 µM (inactive),> 100 µM (inactive),> 100 µM (inactive),> 100 µM (inactive),> 100 µM (inactive),,> 100 µM (inactive),> 100 µM (inactive),> 100 µM (inactive),> 100 µM (inactive),> 100 µM (inactive),> 100 µM (inactive),> 100 µM (inactive),> 100 µM (inactive),,> 100 µM (inactive),> 100 µM (inactive)
O=C(/C=C/c1ccc2ccccc2c1)NCc1ccc(C(=O)NCc2ccccc2)cc1,> 100 µM (inactive),8.53 µM (inactive),> 100 µM (inactive),30.4 µM (inactive),34.4 µM (inactive),> 100 µM (inactive),> 100 µM (inactive),> 100 µM (inactive),,14.2 µM (inactive),> 100 µM (inactive),> 93.8 µM (inactive),> 100 µM (inactive),35.7 µM (inactive),27.5 µM (inactive),> 80.5 µM (inactive),35.9 µM (inactive),,26.3 µM (inactive),> 53.8 µM (inactive)
COc1ccc(/C=N/CCC/N=C/c2ccc(OC)cc2O)c(O)c1,37.8 µM (inactive),36.8 µM (inactive),57.9 µM (inactive),35.6 µM (inactive),17.7 µM (inactive),29.3 µM (inactive),38.7 µM (inactive),26.1 µM (inactive),,> 100 µM (inactive),> 100 µM (inactive),38.3 µM (inactive),75.3 µM (inactive),97.3 µM (inactive),,16 µM (inactive),47 µM (inactive),> 100 µM (inactive),16.7 µM (inactive),46 µM (inactive)
COC1=N[C@H](C(C)C)C(OC)=N[C@H]1Cc1ccc(C[C@@H]2N=C(OC)[C@@H](C(C)C)N=C2OC)s1,33.2 µM (inactive),37.7 µM (inactive),39.9 µM (inactive),76.9 µM (inactive),38.2 µM (inactive),24.8 µM (inactive),27.6 µM (inactive),43.3 µM (inactive),49.3 µM (inactive),54.8 µM (inactive),> 100 µM (inactive),,36 µM (inactive),26.2 µM (inactive),> 100 µM (inactive),58.9 µM (inactive),54.5 µM (inactive),58.3 µM (inactive),,45.4 µM (inactive)
N#CC(C(=O)c1ccccc1F)c1nc2cc(C(F)(F)F)ccc2s1 (stereo not drawn),28.3 µM (inactive),31.3 µM (inactive),30.6 µM (inactive),31.6 µM (inactive),14.3 µM (inactive),22.4 µM (inactive),31 µM (inactive),23.1 µM (inactive),,18.7 µM (inactive),30.8 µM (inactive),22 µM (inactive),,17.6 µM (inactive),33.4 µM (inactive),16.6 µM (inactive),,30.1 µM (inactive),33.2 µM (inactive),
COC(=O)C1c2cc3c(c(O)c2CCC1(C)O)C(=O)c1c(O)cc2c(c1C3=O)OC1OC2(C)C(O)C(N(C)C)C1O (stereo not drawn),0.139 µM (active),0.158 µM (active),0.14 µM (active),0.101 µM (active),0.382 µM (active),0.146 µM (active),0.207 µM (active),0.543 µM (active),,0.254 µM (active),0.369 µM (active),,1.75 µM (inactive),0.205 µM (active),1.4 µM (inactive),0.0991 µM (active),0.221 µM (active),0.452 µM (active),0.0112 µM (active),1.4 µM (inactive)
